The values that follow are results of earlier work, collected in patent US12378302B2, “Fusion molecules and uses thereof” (Foundation Medicine, Inc., priority 2012, dated 2025).

Read-outs that look alike come from different tables or passages of the source.

In series [1] the test system is HER2, PDGFR, VEGFR-2, Bcr-Abl and c-Kit.
A further series addresses InsR (Homo sapiens, UniProt P06213).
The target in the next series is EGFR (Homo sapiens, UniProt P00533). The note with it: ErbB family vs other kinases.
For series [2], the target named is T1, PDGFRα (Homo sapiens, UniProt P16234).
T1 sequence (P16234 24-1089, species assumed): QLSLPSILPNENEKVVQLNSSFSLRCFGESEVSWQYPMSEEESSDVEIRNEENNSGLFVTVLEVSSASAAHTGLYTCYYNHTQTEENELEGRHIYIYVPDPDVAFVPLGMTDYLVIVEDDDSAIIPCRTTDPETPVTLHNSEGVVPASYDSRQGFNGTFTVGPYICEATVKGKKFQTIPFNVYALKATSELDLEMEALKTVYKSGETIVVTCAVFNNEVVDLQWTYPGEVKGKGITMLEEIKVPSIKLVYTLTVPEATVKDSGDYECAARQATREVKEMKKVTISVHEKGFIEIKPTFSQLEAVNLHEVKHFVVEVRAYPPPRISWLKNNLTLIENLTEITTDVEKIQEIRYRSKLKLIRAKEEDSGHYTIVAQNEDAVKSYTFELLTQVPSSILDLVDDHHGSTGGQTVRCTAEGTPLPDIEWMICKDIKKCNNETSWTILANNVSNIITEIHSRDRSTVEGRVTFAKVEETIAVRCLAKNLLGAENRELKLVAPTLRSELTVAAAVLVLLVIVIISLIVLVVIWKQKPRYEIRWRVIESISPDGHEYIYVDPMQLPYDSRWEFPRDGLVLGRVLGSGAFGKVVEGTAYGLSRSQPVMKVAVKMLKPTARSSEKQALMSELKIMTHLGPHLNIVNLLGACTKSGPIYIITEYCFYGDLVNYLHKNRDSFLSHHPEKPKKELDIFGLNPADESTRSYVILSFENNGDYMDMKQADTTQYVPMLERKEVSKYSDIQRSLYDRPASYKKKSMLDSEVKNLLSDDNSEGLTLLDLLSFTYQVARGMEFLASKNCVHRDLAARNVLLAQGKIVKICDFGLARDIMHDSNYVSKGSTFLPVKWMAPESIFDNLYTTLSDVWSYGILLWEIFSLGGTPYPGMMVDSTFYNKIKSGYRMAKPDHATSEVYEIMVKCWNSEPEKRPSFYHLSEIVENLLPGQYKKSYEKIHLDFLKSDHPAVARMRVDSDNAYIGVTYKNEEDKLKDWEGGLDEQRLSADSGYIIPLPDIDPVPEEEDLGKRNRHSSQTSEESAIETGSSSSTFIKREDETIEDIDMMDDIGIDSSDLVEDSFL
In series [3] the target is T1, PDGFRα. The note with it: read-out: IC50 against PDGFRα.
The test system of series [4] is Abl, Fyn, Kit, Lck, Lyn and Yes.
Series [5] shares this test system. The source holds these as a separate data set.
In a further series the test system is VEGFR2. The note with it: VEGFR2/3 vs FGFR1, PDGFRα/β.
A further series has as its target FKBP12 (Homo sapiens, UniProt P62942). The note with it: read-out: IC50 mTOR inhibitor of FKBP12.
The target of a further series is CaMK. The note with it: competitively with ATP.
Series [6] concerns phosphorylation of FGFR-1, EGFR or c-Met.
In series [7] the test system is myeloproliferative disorders.
Series [8] deals with HEL92.1.7 cells. The note with it: read-out: IC50 antiproliferative activity.
Series [9] has as its system HEL92.1.7 cells. The note with it: read-out: IC50 antiproliferative activity in vitro.
Series [10] relates to STAT5 phosphorylation. The note with it: read-out: IC50 for prevention of STAT5 phosphorylation.
The test system of series [11] is myeloproliferative disorders. This is another data set of the same source.
For series [12], the system named is STAT5 phosphorylation.
The next series deals with B-Raf^V600E (Homo sapiens, UniProt P15056, V600E). The note with it: V600E vs wild-type.
Chain of B-Raf^V600E (P15056 whole entry V600E): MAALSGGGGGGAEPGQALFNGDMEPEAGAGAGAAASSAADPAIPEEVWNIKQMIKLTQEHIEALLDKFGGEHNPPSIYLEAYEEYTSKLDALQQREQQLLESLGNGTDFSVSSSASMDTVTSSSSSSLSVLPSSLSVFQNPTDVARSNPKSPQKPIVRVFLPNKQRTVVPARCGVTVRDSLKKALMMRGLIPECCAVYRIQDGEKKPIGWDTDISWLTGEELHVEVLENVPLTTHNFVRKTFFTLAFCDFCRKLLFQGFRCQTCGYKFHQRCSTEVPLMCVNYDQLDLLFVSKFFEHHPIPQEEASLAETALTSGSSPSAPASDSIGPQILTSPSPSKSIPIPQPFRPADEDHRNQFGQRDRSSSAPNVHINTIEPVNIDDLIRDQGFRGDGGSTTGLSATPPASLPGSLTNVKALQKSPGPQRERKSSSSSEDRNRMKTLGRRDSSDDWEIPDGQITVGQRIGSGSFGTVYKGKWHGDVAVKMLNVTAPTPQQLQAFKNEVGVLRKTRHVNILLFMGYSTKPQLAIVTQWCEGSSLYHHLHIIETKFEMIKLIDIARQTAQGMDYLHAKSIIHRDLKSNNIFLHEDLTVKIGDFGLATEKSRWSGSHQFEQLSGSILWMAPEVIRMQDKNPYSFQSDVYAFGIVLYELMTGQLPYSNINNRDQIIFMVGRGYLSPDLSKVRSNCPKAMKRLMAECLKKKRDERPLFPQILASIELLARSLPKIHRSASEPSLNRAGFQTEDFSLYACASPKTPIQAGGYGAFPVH
Series [13] concerns the target c-Raf-1 (Y340D and Y341D mutations) (Homo sapiens, UniProt P04049, Y340D/Y341D).
The next series deals with H460 cells. The note with it: read-out: IC50 reduction of colony number and size.
In another series the target is VEGFR3 (Homo sapiens, UniProt P35916).
Chain of VEGFR3 (P35916 25-1363): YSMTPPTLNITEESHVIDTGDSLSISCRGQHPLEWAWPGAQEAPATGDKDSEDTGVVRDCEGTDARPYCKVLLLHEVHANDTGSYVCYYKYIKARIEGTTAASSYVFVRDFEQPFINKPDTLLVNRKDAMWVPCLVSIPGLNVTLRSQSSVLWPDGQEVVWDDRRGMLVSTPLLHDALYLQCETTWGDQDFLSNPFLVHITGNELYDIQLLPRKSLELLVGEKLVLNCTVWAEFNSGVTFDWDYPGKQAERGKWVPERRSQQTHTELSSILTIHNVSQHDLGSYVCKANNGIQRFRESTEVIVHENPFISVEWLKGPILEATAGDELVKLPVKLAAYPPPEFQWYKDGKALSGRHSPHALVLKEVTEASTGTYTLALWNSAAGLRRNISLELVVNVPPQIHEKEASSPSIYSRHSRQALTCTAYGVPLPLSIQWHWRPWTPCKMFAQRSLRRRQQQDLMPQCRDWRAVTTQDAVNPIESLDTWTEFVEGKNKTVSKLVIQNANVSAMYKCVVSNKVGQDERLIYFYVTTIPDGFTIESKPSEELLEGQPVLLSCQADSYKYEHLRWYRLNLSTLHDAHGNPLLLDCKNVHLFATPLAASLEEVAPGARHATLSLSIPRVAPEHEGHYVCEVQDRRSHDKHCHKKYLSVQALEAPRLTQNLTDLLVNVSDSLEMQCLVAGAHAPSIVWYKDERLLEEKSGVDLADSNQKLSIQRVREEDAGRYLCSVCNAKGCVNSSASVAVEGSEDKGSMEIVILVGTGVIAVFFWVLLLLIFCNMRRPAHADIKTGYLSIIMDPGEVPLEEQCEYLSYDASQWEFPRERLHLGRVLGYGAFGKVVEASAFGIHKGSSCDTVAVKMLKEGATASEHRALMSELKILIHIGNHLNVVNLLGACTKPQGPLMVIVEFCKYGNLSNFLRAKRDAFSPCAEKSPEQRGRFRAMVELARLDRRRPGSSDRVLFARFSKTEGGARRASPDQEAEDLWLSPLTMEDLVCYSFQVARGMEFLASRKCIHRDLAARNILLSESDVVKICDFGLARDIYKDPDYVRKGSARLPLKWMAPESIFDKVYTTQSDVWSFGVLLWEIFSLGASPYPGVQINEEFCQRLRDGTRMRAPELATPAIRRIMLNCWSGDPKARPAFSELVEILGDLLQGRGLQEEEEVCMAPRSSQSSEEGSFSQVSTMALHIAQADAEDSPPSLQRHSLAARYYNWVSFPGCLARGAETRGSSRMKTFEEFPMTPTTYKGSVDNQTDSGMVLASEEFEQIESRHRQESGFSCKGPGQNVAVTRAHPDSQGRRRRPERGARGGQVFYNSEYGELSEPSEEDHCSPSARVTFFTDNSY
Series [14] deals with Akt1, CDKs, PLK1, EGFR, IGF-1R, c-Met, Flt2 etc.
Series [15] relates to panel of 12 PMTs and DNMT1.
The test system of series [16] is FGFR-1, Flt3, c-Met EGFR and IGF-1R.
For series [17] the test system is unchanged. The source holds these as a separate data set.

Chain of InsR (P06213 28-1382, species assumed): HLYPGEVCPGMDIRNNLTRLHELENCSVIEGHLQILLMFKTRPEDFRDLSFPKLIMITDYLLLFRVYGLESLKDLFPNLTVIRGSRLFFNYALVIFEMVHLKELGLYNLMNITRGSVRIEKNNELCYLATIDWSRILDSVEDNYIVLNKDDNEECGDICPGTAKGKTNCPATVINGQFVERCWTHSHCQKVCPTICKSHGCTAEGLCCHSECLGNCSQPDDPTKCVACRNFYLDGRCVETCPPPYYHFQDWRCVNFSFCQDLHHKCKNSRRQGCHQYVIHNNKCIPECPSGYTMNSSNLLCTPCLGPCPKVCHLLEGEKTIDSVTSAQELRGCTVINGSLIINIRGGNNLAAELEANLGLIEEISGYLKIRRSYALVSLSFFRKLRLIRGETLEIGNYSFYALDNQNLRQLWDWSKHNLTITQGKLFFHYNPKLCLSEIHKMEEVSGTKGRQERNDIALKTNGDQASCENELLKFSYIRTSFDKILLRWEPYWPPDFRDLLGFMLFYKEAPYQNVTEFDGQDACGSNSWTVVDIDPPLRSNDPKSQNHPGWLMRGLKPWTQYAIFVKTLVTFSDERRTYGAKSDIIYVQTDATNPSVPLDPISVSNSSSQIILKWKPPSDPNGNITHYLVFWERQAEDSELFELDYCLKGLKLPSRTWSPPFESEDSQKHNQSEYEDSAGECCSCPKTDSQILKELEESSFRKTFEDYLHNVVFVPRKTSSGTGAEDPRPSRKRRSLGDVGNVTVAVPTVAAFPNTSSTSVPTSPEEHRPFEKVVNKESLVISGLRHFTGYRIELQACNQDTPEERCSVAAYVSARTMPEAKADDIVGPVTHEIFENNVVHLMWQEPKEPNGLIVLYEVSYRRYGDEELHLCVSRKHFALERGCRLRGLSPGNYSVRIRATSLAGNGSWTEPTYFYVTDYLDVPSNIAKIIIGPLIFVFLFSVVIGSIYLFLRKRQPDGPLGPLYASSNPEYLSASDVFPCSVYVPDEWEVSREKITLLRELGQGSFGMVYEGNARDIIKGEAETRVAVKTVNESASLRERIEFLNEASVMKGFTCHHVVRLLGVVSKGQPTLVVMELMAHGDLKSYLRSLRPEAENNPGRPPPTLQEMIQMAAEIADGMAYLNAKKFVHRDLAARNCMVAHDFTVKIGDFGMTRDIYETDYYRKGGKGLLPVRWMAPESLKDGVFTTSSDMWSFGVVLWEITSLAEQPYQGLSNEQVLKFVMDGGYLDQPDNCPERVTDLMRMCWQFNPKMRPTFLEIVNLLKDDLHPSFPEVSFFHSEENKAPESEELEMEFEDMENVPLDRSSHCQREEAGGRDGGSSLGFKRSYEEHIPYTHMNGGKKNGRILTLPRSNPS
Chain of FKBP12 (P62942 whole entry): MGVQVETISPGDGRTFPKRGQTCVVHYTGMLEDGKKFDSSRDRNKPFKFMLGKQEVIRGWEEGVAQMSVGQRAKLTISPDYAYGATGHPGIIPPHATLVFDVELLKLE

`Nc1ncnc2c1c(-c1cccc(OCc3ccccc3)c1)cn2C1CC(CN2CCCC2)C1` (stereo in doubt) [NVP-ADW742, 5-(3-(benzyloxy)phenyl)-7-((1r,3r)-3-(pyrrolidin-1-ylmethyl)cyclobutyl)-7H-pyrrolo[2,3-d]pyrimidin-4-amine]: the “activity to HER2, PDGFR, VEGFR-2, Bcr-Abl and c-Kit” value in [1] is “little activity”.
One may read the IC50 as the concentration that inhibits the measured activity by half. `CC(C)(C)c1cc(C=C(C#N)C#N)cc(Br)c1O` [AG-1024, 2-(3-bromo-5-tert-butyl-4-hydroxybenzylidene) malononitrile]: the IC50 at InsR was 57000 nM.
Take `C=CC(=O)Nc1ccc2ncnc(Nc3ccc(OCc4cccc(F)c4)c(Cl)c3)c2c1.Cc1ccc(S(=O)(=O)O)cc1` [AST-1306, 2-Propenamide, N-[4-[[3-chloro-4-[(3-fluorophenyl)methoxy]phenyl]amino]-6-quinazolinyl]-, 4-methylbenzenesulfonate (1:1)]: the “selective for ErbB family than other kinases” value on EGFR is recorded as 3000 fold.
In the case of `S=C(NCc1ccc2c(c1)OCO2)N1CCN(c2ncnc3c2oc2ccccc23)CC1` [Amuvatinib], the IC50 on PDGFRα [2] and at PDGFRα [3] was 40 nM each time.
With `Cn1c(=O)n(-c2ccc(C(C)(C)C#N)cc2)c2c3cc(-c4cnc5ccccc5c4)ccc3ncc21` [BEZ235, 2-methyl-2-(4-(3-methyl-2-oxo-8-(quinolin-3-yl)-2,3-dihydroimidazo[4,5-c]quinolin-1-yl)phenyl)propanenitrile], the “inhibition of Akt and PDK1” value with Akt and PDK1 is given as “poor inhibitory”.
On to `CCN1CCN(c2ccc(Nc3cc(N(C)C(=O)Nc4c(Cl)c(OC)cc(OC)c4Cl)ncn3)cc2)CC1` [BGJ398, 3-(2,6-dichloro-3,5-dimethoxyphenyl)-1-(6-(4-(4-ethylpiperazin-1-yl)phenylamino)pyrimidin-4-yl)-1-methylurea], for which the “activity to Abl, Fyn, Kit, Lck, Lyn and Yes” value in series [4] and in [5] was “little activity” each time.
Regarding `COc1cc2nccc(Oc3ccc(NC(=O)NC4CC4)c(Cl)c3)c2cc1C(N)=O` [E7080, 1-(4-(6-carbamoyl-7-methoxyquinolin-4-yloxy)-2-chlorophenyl)-3-cyclopropylurea], in the series on VEGFR2, the “more selective for VEGFR2/3 against FGFR1, PDGFRα/β” value is ~10 fold.
Turning to `CO[C@H]1C[C@@H]2CC[C@@H](C)[C@@](O)(O2)C(=O)C(=O)N2CCCC[C@H]2C(=O)O[C@H]([C@@H](C)C[C@@H]2CC[C@@H](OCCO)[C@H](OC)C2)CC(=O)[C@H](C)/C=C(\C)[C@@H](O)[C@@H](OC)C(=O)C(C)C[C@H](C)/C=C/C=C/C=C/1C` (stereo partly drawn) [Everolimus, 23,27-Epoxy-3H-pyrido[2,1-c][1,4]oxaazacyclohentriacontine, rapamycin deriv], the IC50 on FKBP12 is 1.6 to 2.4 nM.
For the compound `COc1cc2c(Oc3ccc(NC(=O)C4(C(=O)Nc5ccc(F)cc5)CC4)cc3F)ccnc2cc1OCCCN1CCOCC1` [Foretinib, N-(3-fluoro-4-(6-methoxy-7-(3-morpholinopropoxy)quinolin-4-yloxy)phenyl)-N-(4-fluorophenyl)cyclopropane-1,1-dicarboxamide], the “activity to FGFR1 and EGFR” value with FGFR1 and EGFR is on record as “little activity”.
What is called Ki is the dissociation constant of the complex between target and ligand, obtained from inhibition or displacement. For the compound `COC(=O)[C@@]1(O)C[C@H]2O[C@]1(C)n1c3ccccc3c3c4c(c5c6ccccc6n2c5c31)C(=O)NC4` [K252a], the Ki on PKA is 18 nM; on PKC, 25 nM; on CaMK it was 1.8 nM; at PKG it was 20 nM.
Consider `CCCNC(=O)Nc1ccc(Oc2ncnc3cc(OC)c(OC)cc23)cc1Cl` [KRN 633, 1-(2-chloro-4-(6,7-dimethoxyquinazolin-4-yloxy)phenyl)-3-propylurea], for which the “block of the phosphorylation of FGFR-1, EGFR or c-Met in cell” value in [6] is “does not block”.
On to `COc1ccc(-c2ccc3c(N4CCOCC4)nc(N4C[C@@H](C)O[C@@H](C)C4)nc3n2)cc1CO` [KU-0063794, (5-(2-((2R,6S)-2,6-dimethylmorpholino)-4-morpholinopyrido[2,3-d]pyrimidin-7-yl)-2-methoxyphenyl)methanol], for which the “effect on PI3Ks” value in the series with PI3Ks was “no effect”.
In the case of `O=C(c1ccc(/C=C/c2n[nH]c3ccccc23)cc1)N1CCNCC1` [KW-2449, (E)-(4-(2-(1H-indazol-3-yl)vinyl)phenyl)(piperazin-1-yl)methanone], in the series on PDGFRβ, IGF-1R, EGFR, the “effect on PDGFRβ, IGF-1R, EGFR” value is “little effect”.
Regarding `C[C@]12O[C@H](C[C@]1(O)CO)n1c3ccccc3c3c4c(c5c6ccccc6n2c5c31)CNC4=O` [Lestaurtinib, (9S,10S,12R)-2,3,9,10,11,12-Hexahydro-10-hydroxy-10-(hydroxymethyl)-9-methyl-9,12-epoxy-1H-diindolo[1,2,3-fg:3′,2′,l′-kl]pyrrolo[3,4-i][1, 6]benzodiazocin-1-one], the “effect against myeloproliferative disorders in vivo” value in series [7] and in series [11] was “effective” each time. The IC50 is 30 to 100 nM with HEL92.1.7 cells [8], 30 to 100 nM with HEL92.1.7 cells [9], 20 to 30 nM in the series on STAT5 phosphorylation [10] and 20 to 30 nM in the series with STAT5 phosphorylation [12].
In the case of `O=C(O)CC[C@H]1CC[C@@](c2cc(F)ccc2F)(S(=O)(=O)c2ccc(Cl)cc2)CC1` [MK-0752, 3-((1r,4s)-4-(4-chlorophenylsulfonyl)-4-(2,5-difluorophenyl)cyclohexyl)propanoic acid], the IC50 with Aβ40 production is 5 nM.
For `CCCS(=O)(=O)Nc1ccc(F)c(C(=O)c2c[nH]c3ncc(Cl)cc23)c1F` [PLX4720, N-(3-(5-chloro-1H-pyrrolo[2,3-b]pyridine-3-carbonyl)-2,4-difluorophenyl) propane-1-sulfonamide], the “selectivity for B-RafV600E than wild-type B-Raf” value at B-Raf^V600E is recorded as 10 fold. In addition, the “potency to c-Raf-1 (Y340D and Y341D mutations) relative to B-Raf V600E” value in series [13] is reported as “equally potent”.
For `COc1cc2c(cc1OC)C(=Cc1ccc(O)cc1)C(=O)N2` [RPI-1, 1,3-dihydro-5,6-dimethoxy-3-[(4-hydroxyphenyl)methylene]-H-indol-2-one], the IC50 with H460 cells was 24500 nM.
On to `CCn1c(N)c(C(=O)NC)c(=O)c2ccc(C#C[C@@](C)(O)COC)nc21` [SAR131675, (R)-2-amino-1-ethyl-7-(3-hydroxy-4-methoxy-3-methylbut-1-ynyl)-N-methyl-4-oxo-1,4-dihydro-1,8-naphthyridine-3-carboxamide], for which, at VEGFR3, the Ki was 12 nM, the “more selective for VEGFR3 than VEGFR1” value was “about 50 fold” and the “more selective for VEGFR3 than VEGFR2” value is recorded as ~10 fold. Besides, the 50% inhibitory concentration (IC50) at VEGFR3 (read-out: IC50 VEGFR3 (Flt4)) was 23 nM. Also, the “activity against Akt1, CDKs, PLK1, EGFR, IGF-1R, c-Met, Flt2 etc.” value in series [14] was “little activity”.
As to `CC(C)N(CCCNC(=O)Nc1ccc(C(C)(C)C)cc1)C[C@H]1O[C@@H](n2cc(Br)c3c(N)ncnc32)[C@H](O)[C@@H]1O` [SGC 0946, 1-[3-[[[(2R,3S,4R,5R)-5-(4-Amino-5-bromo-7H-pyrrolo[2,3-d]pyrimidin-7-yl)-3,4-dihydro-xytetrahydrofuran-2-yl]methyl](isopropyl)amino]pro-pyl]-3-[4-(2,2-dimethylethyl)phenyl]urea], the “activity against a panel of 12 PMTs and DNMT1” value in [15] is “inactive”.
For `COc1cc2nccc(Oc3ccc(NC(=O)Nc4cc(C)on4)c(Cl)c3)c2cc1OC` [Tivozanib, 1-(2-chloro-4-(6,7-dimethoxyquinolin-4-yloxy)phenyl)-3-(5-methylisoxazol-3-yl)urea], the “activity against FGFR-1, Flt3, c-Met EGFR and IGF-1R” value in [16] and in [17] was “low activity” in each case.
